Measurements from ChEMBL document CHEMBL1649156, “Antianaerobic activity of sulopenem compared to six other agents” (2009).

Tests used:
Format in all cases: functional
Anaerococcus tetradius = assay: Antimicrobial activity in Anaerococcus tetradius by CLSI agar dilution method
Lactobacillus = assay: Antimicrobial activity in Lactobacillus by CLSI agar dilution method
Hoylesella oralis = assay: Antimicrobial activity in Prevotella oralis group by CLSI agar dilution method
Bacteroides uniformis = assay: Antimicrobial activity in Bacteroides uniformis by CLSI agar dilution method
Thomasclavelia ramosa = assay: Antimicrobial activity in Clostridium ramosum by CLSI agar dilution method
Clostridium perfringens = assay: Antimicrobial activity in Clostridium perfringens by CLSI agar dilution method
Bacteroides stercoris = assay: Antimicrobial activity in Bacteroides stercoris by CLSI agar dilution method
Prevotella bergensis = assay: Antimicrobial activity in Prevotella bergensis by CLSI agar dilution method; settings: Hallella bergensis
[1] = system: Enterocloster clostridioformis; assay: Antimicrobial activity in Clostridium clostridioforme by CLSI agar dilution method
Hoylesella loescheii = assay: Antimicrobial activity in Prevotella loescheii by CLSI agar dilution method
Prevotella salivae = assay: Antimicrobial activity in Prevotella salivae by CLSI agar dilution method; settings: Segatella salivae
Clostridioides difficile = assay: Antimicrobial activity in Clostridium difficile by CLSI agar dilution method
Clostridium sp. = assay: Antimicrobial activity in Clostridium sp. by CLSI agar dilution method
Anaerococcus prevotii = assay: Antimicrobial activity in Anaerococcus prevotii by CLSI agar dilution method
Parvimonas micra = assay: Antimicrobial activity in Micromonas micros by CLSI agar dilution method
Prevotella nigrescens = assay: Antimicrobial activity in Prevotella nigrescens by CLSI agar dilution method
Tissierella praeacuta = assay: Antimicrobial activity in Clostridium hastiforme by CLSI agar dilution method
[2] = system: Peptoniphilus asaccharolyticus; assay: Antimicrobial activity in Peptoniphilus asaccharolyticus by CLSI agar dilution method
Prevotella baroniae = assay: Antimicrobial activity in Prevotella baroniae by CLSI agar dilution method; settings: Segatella baroniae
[3] = system: Fusobacterium necrophorum; assay: Antimicrobial activity in Fusobacterium necrophorum by CLSI agar dilution method
Finegoldia magna = assay: Antimicrobial activity in Finegoldia magna by CLSI agar dilution method
Porphyromonas gingivalis = assay: Antimicrobial activity in Porphyromonas gingivalis by CLSI agar dilution method
[4] = system: Porphyromonas asaccharolytica; assay: Antimicrobial activity in Porphyromonas asaccharolytica by CLSI agar dilution method
Cutibacterium acnes = assay: Antimicrobial activity in Propionibacterium acnes by CLSI agar dilution method
Prevotella corporis = assay: Antimicrobial activity in Prevotella corporis by CLSI agar dilution method
Prevotella veroralis = assay: Antimicrobial activity in Prevotella veroralis by CLSI agar dilution method
Fusobacterium nucleatum = assay: Antimicrobial activity in Fusobacterium nucleatum by CLSI agar dilution method
Fusobacterium mortiferum = assay: Antimicrobial activity in Fusobacterium mortiferum by CLSI agar dilution method
Bacteroides ovatus = assay: Antimicrobial activity in Bacteroides ovatus by CLSI agar dilution method
Clostridium tertium = assay: Antimicrobial activity in Clostridium tertium by CLSI agar dilution method
[5] = system: Bacteroides thetaiotaomicron; assay: Antimicrobial activity in Bacteroides thetaiotaomicron by CLSI agar dilution method
[6] = system: Peptostreptococcus anaerobius; assay: Antimicrobial activity in Peptostreptococcus anaerobius by CLSI agar dilution method
Phocaeicola vulgatus = assay: Antimicrobial activity in Bacteroides vulgatus by CLSI agar dilution method
Prevotella intermedia = assay: Antimicrobial activity in Prevotella intermedia by CLSI agar dilution method
Bifidobacterium = assay: Antimicrobial activity in Bifidobacterium by CLSI agar dilution method
Actinomyces = assay: Antimicrobial activity in Actinomyces by CLSI agar dilution method
Clostridium cadaveris = assay: Antimicrobial activity in Clostridium cadaveris by CLSI agar dilution method
Bacteroides fragilis = assay: Antimicrobial activity in Bacteroides fragilis by CLSI agar dilution method
Prevotella disiens = assay: Antimicrobial activity in Prevotella disiens by CLSI agar dilution method
[Clostridium] innocuum = Antimicrobial activity in Clostridium innocuum by CLSI agar dilution method
Clostridium butyricum = assay: Antimicrobial activity in Clostridium butyricum by CLSI agar dilution method
[7] = system: Paeniclostridium sordellii; assay: Antimicrobial activity in Clostridium sordellii by CLSI agar dilution method; settings: Paraclostridium sordellii
Prevotella bivia = assay: Antimicrobial activity in Prevotella bivia by CLSI agar dilution method
Prevotella denticola = assay: Antimicrobial activity in Prevotella denticola by CLSI agar dilution method
Prevotella buccae = assay: Antimicrobial activity in Prevotella buccae by CLSI agar dilution method; settings: Segatella buccae
Eggerthella lenta = assay: Antimicrobial activity in Eggerthella lenta by CLSI agar dilution method
[8] = system: Parabacteroides distasonis; assay: Antimicrobial activity in Bacteroides distasonis by CLSI agar dilution method
Prevotella sp. = assay: Antimicrobial activity in Prevotella sp.by CLSI agar dilution method
Fusobacterium varium = assay: Antimicrobial activity in Fusobacterium varium by CLSI agar dilution method
[9] = system: Paraclostridium bifermentans; assay: Antimicrobial activity in Clostridium bifermentans by CLSI agar dilution method
[10] = system: Prevotella melaninogenica; assay: Antimicrobial activity in Prevotella melaninogenica by CLSI agar dilution method

C[C@@H](O)[C@H]1C(=O)N2C(C(=O)O)=C(SCCNC=N)C[C@H]12 [IMIPENEM ANHYDROUS]
0.06 µg/mL: MIC90 (Anaerococcus tetradius) | MIC (Prevotella bergensis) | MIC90 (Parvimonas micra) | MIC90 (Prevotella nigrescens) | MIC (Finegoldia magna) | MIC50 (Finegoldia magna) | MIC90 (Fusobacterium nucleatum) | MIC [6] | MIC50 [6] | MIC90 (Prevotella intermedia) | MIC (Actinomyces) | MIC50 (Prevotella disiens) | MIC [7]
0.03 µg/mL: MIC50 (Anaerococcus tetradius) | MIC (Hoylesella loescheii) | MIC (Prevotella salivae) | MIC (Parvimonas micra) | MIC50 (Parvimonas micra) | MIC (Prevotella baroniae) | MIC50 (Cutibacterium acnes) | MIC90 (Cutibacterium acnes) | MIC (Prevotella veroralis) | MIC50 (Fusobacterium nucleatum) | MIC (Bifidobacterium) | MIC50 (Bifidobacterium) | MIC (Prevotella disiens) | MIC (Prevotella bivia) | MIC50 (Prevotella bivia) | MIC50 (Prevotella denticola) | MIC (Prevotella buccae) | MIC50 (Prevotella buccae) | MIC (Prevotella sp.) | MIC50 [10]
1 µg/mL: MIC50 (Lactobacillus) | MIC [1] | MIC50 (Clostridium sp.) | MIC90 (Clostridium sp.) | MIC90 (Fusobacterium mortiferum) | MIC90 [6] | MIC90 [8] | MIC90 (Fusobacterium varium)
0.25 µg/mL: MIC (Bacteroides uniformis) | MIC50 (Bacteroides uniformis) | MIC (Thomasclavelia ramosa) | MIC (Bacteroides stercoris) | MIC50 (Bacteroides stercoris) | MIC90 (Bacteroides ovatus) | MIC (Clostridium tertium) | MIC50 (Clostridium tertium) | MIC [5] | MIC50 [5] | MIC90 [5] | MIC90 (Bacteroides fragilis) | MIC90 (Prevotella bivia) | MIC [9]
0.125 µg/mL: MIC50 (Clostridium perfringens) | MIC90 (Clostridium perfringens) | MIC90 (Finegoldia magna) | MIC (Bacteroides ovatus) | MIC50 (Bacteroides ovatus) | MIC90 (Bifidobacterium) | MIC50 (Actinomyces) | MIC (Clostridium cadaveris) | MIC50 (Bacteroides fragilis) | MIC ([Clostridium] innocuum) | MIC90 (Prevotella denticola) | MIC90 (Prevotella buccae) | MIC90 [10]
2 µg/mL: MIC90 (Lactobacillus) | MIC (Tissierella praeacuta)
0.5 µg/mL: MIC50 (Fusobacterium mortiferum) | MIC50 (Phocaeicola vulgatus) | MIC90 (Phocaeicola vulgatus) | MIC (Clostridium butyricum) | MIC50 (Eggerthella lenta) | MIC90 (Eggerthella lenta) | MIC50 [8] | MIC (Fusobacterium varium) | MIC50 (Fusobacterium varium)
4 µg/mL: MIC50 (Clostridioides difficile) | MIC90 (Clostridioides difficile)
≤ 0.016 µg/mL: MIC (Hoylesella oralis) | MIC (Anaerococcus prevotii) | MIC (Prevotella nigrescens) | MIC50 (Prevotella nigrescens) | MIC [2] | MIC50 [2] | MIC [3] | MIC50 [3] | MIC (Porphyromonas gingivalis) | MIC [4] | MIC (Prevotella corporis) | MIC50 (Prevotella corporis) | MIC (Prevotella intermedia) | MIC50 (Prevotella intermedia)

CCC[C@@H]1C[C@@H](C(=O)N[C@@H]([C@H]2O[C@H](SC)[C@H](O)[C@@H](O)[C@H]2O)[C@H](C)Cl)N(C)C1 [CLINDAMYCIN]
> 1 µg/mL: MIC (Bacteroides uniformis)
> 32 µg/mL: MIC90 (Clostridioides difficile) | MIC90 (Bacteroides ovatus) | MIC90 [5] | MIC90 (Bifidobacterium) | MIC90 (Bacteroides fragilis) | MIC90 (Prevotella bivia)
≤ 0.016 µg/mL: MIC (Hoylesella oralis) | MIC (Prevotella bergensis) | MIC (Hoylesella loescheii) | MIC (Prevotella salivae) | MIC (Prevotella nigrescens) | MIC50 (Prevotella nigrescens) | MIC90 (Prevotella nigrescens) | MIC [3] | MIC (Porphyromonas gingivalis) | MIC50 (Prevotella corporis) | MIC (Prevotella veroralis) | MIC [6] | MIC50 [6] | MIC (Prevotella intermedia) | MIC50 (Prevotella intermedia) | MIC90 (Prevotella intermedia) | MIC (Prevotella disiens) | MIC50 (Prevotella disiens) | MIC50 (Prevotella bivia) | MIC (Prevotella denticola) | MIC50 (Prevotella denticola) | MIC (Prevotella buccae) | MIC50 (Prevotella buccae) | MIC90 (Prevotella buccae) | MIC (Prevotella sp.) | MIC [10] | MIC50 [10]
4 µg/mL: MIC90 (Lactobacillus) | MIC50 (Clostridioides difficile) | MIC50 [5] | MIC50 [8]
2 µg/mL: MIC50 (Bacteroides uniformis) | MIC (Thomasclavelia ramosa) | MIC90 (Clostridium perfringens) | MIC90 (Finegoldia magna) | MIC50 (Bacteroides ovatus) | MIC (Clostridium butyricum)
0.06 µg/mL: MIC (Tissierella praeacuta) | MIC [2] | MIC50 (Fusobacterium nucleatum) | MIC50 (Fusobacterium mortiferum) | MIC (Clostridium cadaveris) | MIC90 (Prevotella denticola) | MIC90 [10]
0.25 µg/mL: MIC90 (Parvimonas micra) | MIC90 [6] | MIC [7] | MIC50 (Eggerthella lenta)
16 µg/mL: MIC90 (Clostridium sp.) | MIC90 [8]
1 µg/mL: MIC90 (Anaerococcus tetradius) | MIC50 (Clostridium sp.) | MIC90 (Phocaeicola vulgatus) | MIC50 (Bacteroides fragilis) | MIC90 (Eggerthella lenta)
32 µg/mL: MIC90 (Fusobacterium varium)
0.125 µg/mL: MIC (Anaerococcus prevotii) | MIC (Parvimonas micra) | MIC50 (Parvimonas micra) | MIC50 [2] | MIC50 (Finegoldia magna) | MIC90 (Fusobacterium nucleatum) | MIC90 (Fusobacterium mortiferum) | MIC50 (Actinomyces) | MIC [9]
8 µg/mL: MIC50 (Bacteroides stercoris) | MIC (Clostridium tertium) | MIC50 (Clostridium tertium) | MIC50 (Fusobacterium varium)
0.03 µg/mL: MIC [1] | MIC50 [3] | MIC50 (Phocaeicola vulgatus) | MIC50 (Bifidobacterium) | MIC (Actinomyces) | MIC ([Clostridium] innocuum)
0.5 µg/mL: MIC50 (Anaerococcus tetradius) | MIC50 (Lactobacillus) | MIC50 (Clostridium perfringens)
> 4 µg/mL: MIC (Bacteroides stercoris)
